Assay results: patent US20060117411A1, “Enhancing plant pathogen resistance via increasing BiP levels” (priority 1998, published 2006)

What was measured:
BiP gene expression = experiment: Leaf treatment of tobacco plants, Northern blot of BiP transcripts in treated (local) and untreated (systemic) leaves; type: in vivo, Nicotiana tabacum; conditions: after 3 and 8 hours; tunicamycin 0.02 mM
Excerpt: (§1) We have shown that treatment of tobacco plants with cell wall-degrading enzymes (CDE) leads to the rapid induction of β-1,3-glucanase and other PR genes, both locally and systemically (Vidal et al, 1997). […] We used a commercial preparation of fungal CDEs instead of custom made Erwinia-derived hydrolases to increase reproducibility. […] This induction was observed locally as well systemically with the same timing and intensity. β-1,3-glucanase transcript accumulation is detectable only after 4 hours of incubation and reaches its plateau after 8 hours as described previously (Vidal et al, 1997). Whereas BiP induction is transient, β-1,3-glucanase mRNA levels continue to be high after prolonged incubation times (24-48 hours). […] The signal involved in the systemic response of BiP gene expression must therefore be transported very rapidly from the local leaf to the distal leaves.
Even though BiP induction occurs prior to β-1,3 glucanase induction, we cannot rule out that other, as yet unidentified defence related proteins are induced more rapidly and perhaps before BiP in our experimental system. If this were the case, it would still be possible that the rapid induction of BiP is the result of a feedback mechanism due to ER stress resulting from the increased synthesis of proteins on the rough ER, the unfolded protein response (UPR). […]

[1] = tested on: β-1,3-glucanase gene expression; experiment: Leaf treatment of tobacco plants, Northern blot of β-1,3-glucanase transcripts in local and systemic leaves; type: in vivo, Nicotiana tabacum; conditions: 3 and 8 hours of incubation
Experimental: as §1, with “reproducibility. One leaf from each tobacco plant was treated with CDEs and the induction of BiP gene expression was analysed in the treated (local) and untreated (systemic) leaves from the same plant.” for “reproducibility.”
Even though BiP induction occurs prior to β-1,3 glucanase induction, we cannot rule out that other, as yet unidentified defence related proteins are induced more rapidly and perhaps before BiP in our experimental system. […]

PR1 mRNA = experiment: SA spraying of Arabidopsis WT and saiI mutant, Northern blot of PR1; type: in vivo, Arabidopsis thaliana; conditions: SA 5 mM
Experimental: (§2) WT and saiI mutants of the same ecotype were sprayed with SA (5 mM) and incubated in the light. Total RNA was extracted and probed with the PR1 and BiP gene from Arabidopsis. The induction of PR1 in WT Arabidopsis was detected 3 hours after SA-treatment and continued to increase until 8 hours (FIG. 10). […] As in tobacco plants, BiP mRNA levels increase prior to PR1 transcripts in SA treated Arabidopsis plants (FIG. 10) and diminish after prolonged incubations (data not shown).
(§3) Plants of Nicotiana tabacum cultivar Petit Havana (Maliga et al., 1973) were axenically grown in MS medium (Murashige and Skoog, 1962), 2% Sucrose in a temperature controlled room at 25° C. with a 16 h day/[…] regime and a light irradiance of 200 μE.m^−2.s^−1. Arabidopsis thaliana Nössen WT and saiI plants (Shah et al., 1997) were grown under the same conditions.
Plants were sprayed with 5 mM SA and 0.5% Tween 20 from all sides, ensuring contact on both sides of each leaf of the plant. Typically, 10 ml of the SA solution was sprayed onto each plant. Plants were then transferred from the 16 h day/8 h night regime to constant light regime.
Protoplasts RNAs were extracted as described by Jones et al., (1985). Leaves were ground in frozen liquid nitrogen and transferred to NTES buffer (0.1 M NaCl, 10 mM Tris pH 7.5, 1 mM EDTA, 1% SDS). Protoplasts samples were frozen in liquid nitrogen and thawed in NTES buffer. RNA was extracted after adding an equal volume of phenol/chloroform. Ethanol precipitation was carried out after incubation at −20° C. for 16 hours. The pellet was resuspended and RNA was selectively precipitated with LiCl (2M LiCl) for 2 hours on ice. The pellet was washed with 70% ethanol and resuspended in diethyl pyrocarbonate-treated water. Gel blots of total RNA denatured in formamide and formaldehyde were prepared. RNA was blotted onto Hybond-N membrane (Amersham Corp), as described by the manufacturer. […]

BiP mRNA = experiment: Treatment of Arabidopsis WT and saiI mutant, Northern blot of BiP; type: in vivo, Arabidopsis thaliana; conditions: Arabidopsis saiI mutant vs wild-type, SA 5 mM
Experimental: WT and saiI mutants of the same ecotype were treated with cell wall-degrading enzymes and incubated for 6 hours. As a control (con), leaves were mock-infected with H2O. Total RNA was extracted and Northern blot analysis was performed for BiP and a hevein-like protein (Hel) which is known to be induced by CDEs of Erwinia carotovora (Vidal et al, in preparation).
as §2, §3
Protoplasts RNAs were extracted as described by Jones et al., (1985). […]

tunicamycin was tested, and the “BiP mRNA levels in the treated leaf” value (BiP gene expression) was “strong increase” and the “expression of β-1,3-glucanase, local and systemic” value [1] was “neither locally nor systemically induced”.

`O=C(O)c1ccccc1O` [SA, Salicylic Acid] was tested, and the “PR1 induction during SA-treatment in saiI mutant” value (PR1 mRNA; Arabidopsis saiI mutant) was “completely abolished”, the “time after SA-treatment at which induction of PR1 is detected” value (PR1 mRNA; WT Arabidopsis, light) was 3 h and the “time until which PR1 induction continues to increase” value (PR1 mRNA; WT Arabidopsis, light) was at most 8 h. For the same compound, the “BiP mRNA levels in saiI mutants during SA-treatment” value (BiP mRNA) was “exactly the same induction pattern as in the wild-type plant”.
